The source of these data is article PMC6120666 (The EMBO Journal, 2018).

Molecules are shown by their SMILES.

What all share (test): Drug affinity chromatography with c-ponatinib and LC-MS/MS (ponatinib interactome)
What all share (format): binding

The target in assay [1] is T1, proteins of U2OS cell lysate (Homo sapiens, UniProt O75521).
T1 construct: Proteins enriched by c-ponatinib from U2OS cell lysate; endogenous in cells; host or cells: U2OS cell lysate
To be noted: ECI2, Enoyl-CoA delta isomerase 2, mitochondrial. The essentials: (§1)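 Proteins were identified by nano-UPLC–MS/MS after elution with formic acid and trypsin digestion. They were captured from U2OS lysate (2 mg protein per pulldown, NP-40 buffer) on amine-coupled NHS beads during a 2 h incubation at 4 °C.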

In assay [2] the target is T2, proteins of U2OS cell lysate (Homo sapiens, UniProt P33991).
T2 construct: Proteins enriched by c-ponatinib from U2OS cell lysate; endogenous in cells; host or cells: U2OS cell lysate
To be noted: MCM4, DNA replication licensing factor MCM4. Summed up:
as §1

Assay [3] concerns the target T3, proteins of U2OS cell lysate (Homo sapiens, UniProt P78527).
T3 construct: Proteins enriched by c-ponatinib from U2OS cell lysate; endogenous in cells; host or cells: U2OS cell lysate
As to conditions: PRKDC, DNA-dependent protein kinase catalytic subunit. Summed up:
as §1

Assay [4] deals with T4, proteins of U2OS cell lysate (Homo sapiens, UniProt O00231).
T4 construct: Proteins enriched by c-ponatinib from U2OS cell lysate; endogenous in cells; host or cells: U2OS cell lysate
T4 sequence (O00231 whole entry): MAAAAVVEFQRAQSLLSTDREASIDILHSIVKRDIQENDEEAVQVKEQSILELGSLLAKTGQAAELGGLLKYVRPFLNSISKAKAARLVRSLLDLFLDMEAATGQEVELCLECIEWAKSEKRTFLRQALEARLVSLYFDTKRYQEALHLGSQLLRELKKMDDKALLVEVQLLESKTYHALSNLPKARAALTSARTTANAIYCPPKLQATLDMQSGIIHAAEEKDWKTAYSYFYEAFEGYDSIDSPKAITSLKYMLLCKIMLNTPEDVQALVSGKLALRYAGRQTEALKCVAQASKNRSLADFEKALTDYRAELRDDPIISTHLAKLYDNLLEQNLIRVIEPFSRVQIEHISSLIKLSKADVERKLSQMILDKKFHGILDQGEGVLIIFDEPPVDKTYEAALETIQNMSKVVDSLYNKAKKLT
As to conditions: PSMD11, 26S proteasome non-ATPase regulatory subunit 11. Summed up: as §1

Assay [5] concerns the target T5, proteins of U2OS cell lysate (Homo sapiens, UniProt Q07065).
T5 construct: Proteins enriched by c-ponatinib from U2OS cell lysate; endogenous in cells; host or cells: U2OS cell lysate
To be noted: CKAP4, Cytoskeleton-associated protein 4. The essentials:
as §1

The target in assay [6] is T6, proteins of U2OS cell lysate (Homo sapiens, UniProt P23246).
T6 construct: Proteins enriched by c-ponatinib from U2OS cell lysate; endogenous in cells; host or cells: U2OS cell lysate
T6 sequence (P23246 whole entry): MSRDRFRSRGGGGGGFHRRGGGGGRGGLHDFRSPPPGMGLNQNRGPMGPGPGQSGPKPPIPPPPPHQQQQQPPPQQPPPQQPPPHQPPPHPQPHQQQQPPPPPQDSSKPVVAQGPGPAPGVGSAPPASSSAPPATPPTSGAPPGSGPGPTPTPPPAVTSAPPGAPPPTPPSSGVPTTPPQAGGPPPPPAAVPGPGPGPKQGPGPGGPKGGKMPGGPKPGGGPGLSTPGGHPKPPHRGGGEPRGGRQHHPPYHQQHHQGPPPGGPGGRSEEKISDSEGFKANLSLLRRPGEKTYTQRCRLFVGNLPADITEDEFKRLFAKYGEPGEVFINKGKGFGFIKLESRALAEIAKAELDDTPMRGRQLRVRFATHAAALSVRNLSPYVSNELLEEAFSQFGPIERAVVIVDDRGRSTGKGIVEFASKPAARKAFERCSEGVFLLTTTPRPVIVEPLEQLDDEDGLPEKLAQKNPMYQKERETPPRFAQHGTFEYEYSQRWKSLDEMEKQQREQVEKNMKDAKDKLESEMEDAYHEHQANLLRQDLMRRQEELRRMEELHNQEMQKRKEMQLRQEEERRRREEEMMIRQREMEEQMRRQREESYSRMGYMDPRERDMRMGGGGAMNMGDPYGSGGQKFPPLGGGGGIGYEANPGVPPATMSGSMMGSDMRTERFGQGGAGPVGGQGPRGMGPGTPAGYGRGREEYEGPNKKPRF
To be noted: SFPQ, Splicing factor, proline- and glutamine-rich. Summed up: as §1

Assay [7] deals with T7, proteins of U2OS cell lysate (Homo sapiens, UniProt Q9Y224).
T7 construct: Proteins enriched by c-ponatinib from U2OS cell lysate; endogenous in cells; host or cells: U2OS cell lysate
To be noted: C14orf166, UPF0568 protein C14orf166. Summed up:
as §1

In assay [8] the target is T8, proteins of U2OS cell lysate (Homo sapiens, UniProt P49773).
T8 construct: Proteins enriched by c-ponatinib from U2OS cell lysate; endogenous in cells; host or cells: U2OS cell lysate
T8 sequence (P49773 whole entry): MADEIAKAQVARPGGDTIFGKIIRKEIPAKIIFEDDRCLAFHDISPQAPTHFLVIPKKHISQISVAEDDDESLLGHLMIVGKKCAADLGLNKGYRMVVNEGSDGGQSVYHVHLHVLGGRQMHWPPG
To be noted: HINT1, Histidine triad nucleotide-binding protein 1. Summed up: as §1

Assay [9] addresses T9, proteins of U2OS cell lysate (Homo sapiens, UniProt P35580).
T9 construct: Proteins enriched by c-ponatinib from U2OS cell lysate; endogenous in cells; host or cells: U2OS cell lysate
To be noted: MYH10, Myosin-10. Summed up: as §1

Assay [10] addresses T10, proteins of U2OS cell lysate (Homo sapiens, UniProt Q15365).
T10 construct: Proteins enriched by c-ponatinib from U2OS cell lysate; endogenous in cells; host or cells: U2OS cell lysate
To be noted: PCBP1, Poly(rC)-binding protein 1. The essentials:
as §1

Assay [11] deals with T11, proteins of U2OS cell lysate (Homo sapiens, UniProt P51149).
T11 construct: Proteins enriched by c-ponatinib from U2OS cell lysate; endogenous in cells; host or cells: U2OS cell lysate
To be noted: RAB7A, Ras-related protein Rab-7a. The essentials: as §1

Assay [12] has as its target T12, proteins of U2OS cell lysate (Homo sapiens, UniProt Q14204).
T12 construct: Proteins enriched by c-ponatinib from U2OS cell lysate; endogenous in cells; host or cells: U2OS cell lysate
To be noted: DYNC1H1, Cytoplasmic dynein 1 heavy chain 1. Summed up:
as §1

Assay [13] concerns the target T13, proteins of U2OS cell lysate (Homo sapiens, UniProt P13861).
T13 construct: Proteins enriched by c-ponatinib from U2OS cell lysate; endogenous in cells; host or cells: U2OS cell lysate
As to conditions: PRKAR2A, cAMP-dependent protein kinase type II-alpha regulatory subunit. The essentials: as §1

Assay [14] concerns the target T14, proteins of U2OS cell lysate (Homo sapiens, UniProt O75821).
T14 construct: Proteins enriched by c-ponatinib from U2OS cell lysate; endogenous in cells; host or cells: U2OS cell lysate
To be noted: EIF3G, Eukaryotic translation initiation factor 3 subunit G. Summed up: as §1

Assay [15] concerns the target T15, proteins of U2OS cell lysate (Homo sapiens, UniProt O14976).
T15 construct: Proteins enriched by c-ponatinib from U2OS cell lysate; endogenous in cells; host or cells: U2OS cell lysate
As to conditions: GAK, Cyclin-G-associated kinase. Summed up:
as §1

The target of assay [16] is T16, proteins of U2OS cell lysate (Homo sapiens, UniProt Q92973).
T16 construct: Proteins enriched by c-ponatinib from U2OS cell lysate; endogenous in cells; host or cells: U2OS cell lysate
T16 sequence (Q92973 whole entry): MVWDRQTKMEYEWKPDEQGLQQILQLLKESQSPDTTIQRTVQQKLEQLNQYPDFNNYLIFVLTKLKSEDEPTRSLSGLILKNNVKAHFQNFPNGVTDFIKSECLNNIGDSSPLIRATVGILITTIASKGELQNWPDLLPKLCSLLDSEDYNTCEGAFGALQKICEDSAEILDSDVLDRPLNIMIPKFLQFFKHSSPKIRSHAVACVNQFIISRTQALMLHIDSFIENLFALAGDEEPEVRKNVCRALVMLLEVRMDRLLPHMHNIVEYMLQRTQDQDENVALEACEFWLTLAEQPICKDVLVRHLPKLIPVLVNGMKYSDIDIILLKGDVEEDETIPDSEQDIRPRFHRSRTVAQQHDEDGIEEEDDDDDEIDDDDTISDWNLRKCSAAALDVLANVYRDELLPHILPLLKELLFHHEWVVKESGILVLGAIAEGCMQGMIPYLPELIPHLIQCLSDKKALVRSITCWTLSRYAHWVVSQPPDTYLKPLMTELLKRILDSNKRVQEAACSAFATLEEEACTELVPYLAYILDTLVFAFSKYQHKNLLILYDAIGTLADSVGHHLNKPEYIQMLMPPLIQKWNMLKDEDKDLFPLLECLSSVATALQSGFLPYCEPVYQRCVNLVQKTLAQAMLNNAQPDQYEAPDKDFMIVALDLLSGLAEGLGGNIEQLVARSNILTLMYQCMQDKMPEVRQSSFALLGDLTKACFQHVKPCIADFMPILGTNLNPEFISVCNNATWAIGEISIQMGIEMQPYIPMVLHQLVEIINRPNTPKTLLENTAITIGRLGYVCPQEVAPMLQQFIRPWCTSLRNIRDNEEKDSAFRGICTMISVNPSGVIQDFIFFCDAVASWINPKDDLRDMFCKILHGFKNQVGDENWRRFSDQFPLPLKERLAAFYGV
To be noted: TNPO1, Transportin-1. Summed up:
as §1

The target in assay [17] is T17, proteins of U2OS cell lysate (Homo sapiens, UniProt P10606).
T17 construct: Proteins enriched by c-ponatinib from U2OS cell lysate; endogenous in cells; host or cells: U2OS cell lysate
T17 sequence (P10606 32-129): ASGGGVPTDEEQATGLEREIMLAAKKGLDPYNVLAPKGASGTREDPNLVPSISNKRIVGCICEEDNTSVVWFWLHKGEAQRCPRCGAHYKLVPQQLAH
As to conditions: captured protein COX5B, Rank 183. Summed up: as §1

Assay [18] has as its target T18, proteins of U2OS cell lysate (Homo sapiens, UniProt P55884).
T18 construct: Proteins enriched by c-ponatinib from U2OS cell lysate; endogenous in cells; host or cells: U2OS cell lysate
As to conditions: captured protein EIF3B, Rank 123. Summed up: as §1

The target of assay [19] is T19, proteins of U2OS cell lysate (Homo sapiens, UniProt Q00839).
T19 construct: Proteins enriched by c-ponatinib from U2OS cell lysate; endogenous in cells; host or cells: U2OS cell lysate
To be noted: captured protein HNRNPU, Rank 192. The essentials: as §1

T15 sequence (O14976 whole entry): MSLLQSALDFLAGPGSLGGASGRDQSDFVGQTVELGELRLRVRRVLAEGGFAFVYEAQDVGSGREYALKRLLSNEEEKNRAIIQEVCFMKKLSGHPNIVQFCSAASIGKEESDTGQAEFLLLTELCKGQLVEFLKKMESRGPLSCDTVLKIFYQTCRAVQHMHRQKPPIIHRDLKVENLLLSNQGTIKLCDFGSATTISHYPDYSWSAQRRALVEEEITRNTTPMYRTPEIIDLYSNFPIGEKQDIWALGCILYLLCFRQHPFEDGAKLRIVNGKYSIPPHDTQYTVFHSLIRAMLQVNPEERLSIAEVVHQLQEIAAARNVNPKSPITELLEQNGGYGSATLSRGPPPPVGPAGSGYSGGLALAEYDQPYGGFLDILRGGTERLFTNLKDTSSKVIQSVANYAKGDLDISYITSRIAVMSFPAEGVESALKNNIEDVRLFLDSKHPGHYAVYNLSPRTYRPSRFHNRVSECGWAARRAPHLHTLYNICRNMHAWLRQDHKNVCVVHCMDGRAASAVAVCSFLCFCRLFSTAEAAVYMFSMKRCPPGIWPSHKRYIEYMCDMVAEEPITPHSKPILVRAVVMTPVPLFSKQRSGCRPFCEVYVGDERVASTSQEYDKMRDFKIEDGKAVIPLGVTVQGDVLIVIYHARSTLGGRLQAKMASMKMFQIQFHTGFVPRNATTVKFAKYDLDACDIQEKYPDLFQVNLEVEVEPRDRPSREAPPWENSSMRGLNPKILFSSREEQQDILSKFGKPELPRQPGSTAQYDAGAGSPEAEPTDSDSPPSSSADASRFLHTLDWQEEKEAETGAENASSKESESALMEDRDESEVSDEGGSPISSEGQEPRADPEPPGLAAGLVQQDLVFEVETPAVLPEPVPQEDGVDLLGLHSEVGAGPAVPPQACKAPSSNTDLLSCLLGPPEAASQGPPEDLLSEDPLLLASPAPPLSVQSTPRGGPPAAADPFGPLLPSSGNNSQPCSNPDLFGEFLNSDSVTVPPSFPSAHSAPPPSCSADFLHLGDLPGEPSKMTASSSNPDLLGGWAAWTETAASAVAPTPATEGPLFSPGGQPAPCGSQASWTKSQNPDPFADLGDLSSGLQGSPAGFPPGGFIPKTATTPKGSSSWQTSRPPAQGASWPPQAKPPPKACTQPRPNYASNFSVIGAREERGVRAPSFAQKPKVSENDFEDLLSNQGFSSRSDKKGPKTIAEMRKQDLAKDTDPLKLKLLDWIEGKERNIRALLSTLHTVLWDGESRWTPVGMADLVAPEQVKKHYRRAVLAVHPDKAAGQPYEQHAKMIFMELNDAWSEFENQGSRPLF
T10 sequence (Q15365 whole entry): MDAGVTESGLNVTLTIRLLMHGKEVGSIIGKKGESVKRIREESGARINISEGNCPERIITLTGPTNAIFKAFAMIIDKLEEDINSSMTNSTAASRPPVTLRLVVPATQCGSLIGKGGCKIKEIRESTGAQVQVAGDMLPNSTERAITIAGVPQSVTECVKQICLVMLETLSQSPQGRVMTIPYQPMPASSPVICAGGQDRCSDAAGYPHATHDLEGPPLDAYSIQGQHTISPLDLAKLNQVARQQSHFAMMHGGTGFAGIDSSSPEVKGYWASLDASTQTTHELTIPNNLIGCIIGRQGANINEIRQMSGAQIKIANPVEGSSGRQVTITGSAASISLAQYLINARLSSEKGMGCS
T14 sequence (O75821 whole entry): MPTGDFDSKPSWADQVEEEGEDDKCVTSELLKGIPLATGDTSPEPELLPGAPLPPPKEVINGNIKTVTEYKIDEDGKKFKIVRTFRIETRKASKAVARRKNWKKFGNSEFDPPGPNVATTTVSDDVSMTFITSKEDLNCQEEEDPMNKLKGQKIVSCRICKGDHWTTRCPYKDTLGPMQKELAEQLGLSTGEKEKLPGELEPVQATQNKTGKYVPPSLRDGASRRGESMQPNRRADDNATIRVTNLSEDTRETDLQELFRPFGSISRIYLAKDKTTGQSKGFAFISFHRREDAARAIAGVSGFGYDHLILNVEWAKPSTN
T5 sequence (Q07065 whole entry): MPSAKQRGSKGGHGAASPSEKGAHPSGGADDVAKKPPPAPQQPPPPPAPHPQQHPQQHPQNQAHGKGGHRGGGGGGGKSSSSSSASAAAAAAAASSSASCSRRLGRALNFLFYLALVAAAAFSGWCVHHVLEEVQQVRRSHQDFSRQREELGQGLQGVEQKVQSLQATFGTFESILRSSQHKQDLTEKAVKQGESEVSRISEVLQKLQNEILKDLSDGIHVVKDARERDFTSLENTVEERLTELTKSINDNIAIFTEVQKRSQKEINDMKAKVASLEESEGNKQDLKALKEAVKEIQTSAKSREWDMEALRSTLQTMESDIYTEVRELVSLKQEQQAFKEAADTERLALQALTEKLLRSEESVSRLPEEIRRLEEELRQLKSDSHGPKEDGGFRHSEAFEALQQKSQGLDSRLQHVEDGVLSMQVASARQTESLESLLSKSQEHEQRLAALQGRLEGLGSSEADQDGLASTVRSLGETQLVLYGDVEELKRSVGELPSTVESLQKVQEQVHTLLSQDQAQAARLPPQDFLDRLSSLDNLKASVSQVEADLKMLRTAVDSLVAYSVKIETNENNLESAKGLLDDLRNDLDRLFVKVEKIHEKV

On to `Cc1ccc(C(=O)Nc2ccc(CN3CCN(C)CC3)c(C(F)(F)F)c2)cc1C#Cc1cnc2cccnn12` [PON], for which the “Average LFQ PON_WT” value in assay [1] amounted to 24.0947; in [2] it was 19.8468; in assay [3] it was 25.5794; in [4], 21.0044; in assay [5], 21.3006; in assay [6] it was 20.8702. In addition, the “Average LFQ PON_WT” value was 20.4304 in [7]; 21.3958 in assay [8]; 20.7261 in assay [9]; 21.283 in [10]; 20.9612 in assay [11]; 24.2612 in assay [12]. Also, the “Average LFQ PON_WT” value in assay [13] is recorded as 19.7853; in assay [14], 21.2492; in assay [15], 23.4188; in [16], 24.7772.

As for `Cc1ccc(C(=O)Nc2ccc(CN3CCN(CCCN)CC3)c(C(F)(F)F)c2)cc1C#Cc1cnc2cccnn12` [c-ponatinib, reference compound], the “Average LFQ intensity” value in assay [17] came to 22.1378; in assay [18], 23.0265; in [19], 21.9786.
